Earlier results in patent US20050032777A1, “Diazacycloalkanes as oxytocin agonists” (priority 2001, published 2005).
Like-named read-outs stand apart in the source and are kept apart here.

System: erectile response
Conditions: male rats

**Q.** For `CC[C@H](C)[C@@H]1NC(=O)[C@H](Cc2ccc(O)cc2)NC(=O)[C@@H](N)CSSC[C@@H](C(=O)N2CCC[C@H]2C(=O)N[C@@H](CC(C)C)C(=O)NCC(N)=O)NC(=O)[C@H](CC(N)=O)NC(=O)[C@H](CCC(N)=O)NC1=O` [OT, oxytocin], which erectogenic activity (i.c.v.) is on record?
**A.** erectogenic

**Q.** And the erectogenic activity (iv., doses up to two orders of magnitude greater than i.c.v.)?
**A.** erectogenic activity
